Laboratory results published in patent US20250339426A1, “GCN2 MODULATOR FOR TREATING CANCER” (HIBERCELL, INC., priority 2022, published 2025).

What was measured:
[1] = system: TM00298 (human prostate cancer cells); experiment: In vivo tumor growth inhibition, TM00298 PDX; design: species or system NSG mice; conditions: both 3 mg/kg and 30 mg/kg twice daily oral
Description: TM00298 (human prostate cancer cells): Male 6-8 weeks old NSG mice were inoculated subcutaneously with 1 mm^3 TM00298 tumor fragments. The treatments were started when the mean tumor size reached approximately 123 mm^3 and continued until end of study by twice daily oral gavage dosing of HC-7366 at listed doses (vehicle, 3 mg/kg HC-7366, or 30 mg/kg HC-7366, FIG. 15).
(§1) [formula] • 2.2.2 Tumor Measurements: The measurement of tumor size was conducted three times weekly with a caliper and recorded. The tumor volume (mm^3) was estimated using the formula: TV=a×b^2/2, where “a” and “b” is long and short diameters of a tumor, respectively. Tumor volume was calculated using the formula [tumor volume (mm^3)=π/6×length×width^2).
(§2) Regression was calculated using the formula=100×ΔT/T initial, if ΔT<0. Animals with 0 mm^3 tumor volume (no measurable tumor) for three consecutive measurements were considered as complete responders and animals with 50% tumor regressions were partial responders.

[2] = system: upstream regulators of differentially expressed genes in DLD-1 tumors; experiment: RNAseq analysis of DLD-1 tumors; format: in vivo, mice
Description: DLD-1 (human colorectal cancer cells): Female 6-8 weeks old BALB/c nude mice were inoculated subcutaneously on the right flank with DLD-1 tumor cells (5×10^6) in 0.1 ml of RPMI1640 medium without serum for tumor development. The treatments were started when the mean tumor size reached approximately 195 mm^3 at Day 7 post inoculation and continued until end of study by twice daily oral gavage dosing of HC-7366 at listed doses (vehicle, 0.3 mg/kg HC-7366, 1 mg/kg HC-7366, 3 mg/kg HC-7366, 10 mg/kg HC-7366, or 30 mg/kg HC-7366, FIG. 10). For the time course study, tumors were harvested at Days 4, 7 and 14. Tumors were then used for IHC and RNAseq experiments (see Example 21).
DLD-1 tumor bearing mice were treated with HC-7366 at 0.3, 1, 3, 10 and 30 mg/kg twice a day for 14 days. Tumors were harvested for RNAseq analysis at Day 4, Day 7 and Day 14 (FIG. 128).

[3] = system: MOLM-16 (human AML cells); experiment: In vivo tumor growth inhibition, MOLM-16 xenograft; design: species or system NOD SCID mice
Description: MOLM-16 (human AML cells): Female 6-8 weeks old nonobese diabetic/severe combined immunodeficiency (NOD SCID) mice were inoculated subcutaneously on the right flank with MOLM-16 tumor cells (1×10^7) in RPMI 1640 without serum for tumor development. The treatments were started when the mean tumor size reached approximately 220 mm^3 at Day 14 after cell inoculation and continued until end of study by twice daily oral gavage dosing of HC-7366 at listed doses (vehicle, 0.25 mg/kg HC-7366, 0.5 mg/kg HC-7366, 1 mg/kg HC-7366, or 2 mg/kg HC-7366, FIG. 16)
as §1, §2

[4] = system: human AML cells of model CTG-2229; experiment: AML PDX in vivo study, flow cytometry of blood, spleen, bone marrow; design: species or system NCG mice; conditions: 1 mg/kg PO/BID×28, all tissues
Description: Sub-lethally irradiated NCG mice were inoculated with 2×10^6 human AML cells of model CTG-2229. Mice were monitored post AML inoculation to assess human AML engraftment using huCD45/muCD45/huCD33/huCD3 antibodies and BD TruCount™ beads. When individual animals had ≥20% live huCD45 cells in the bone marrow, they were randomized to treatment cohorts. For the efficacy study, animals were administered (n=13/group) with vehicle control, HC-7366 at 1 mg/kg, 10 mg/kg or 30 mg/kg PO/BID×28, or Venetoclax at 100 mg/kg PO/QD×28. Terminal blood, spleen, and bone marrow samples were collected for flow cytometry (FIG. 87). Tolerability was assessed by body weight loss, lethality, and clinical signs of adverse treatment-related side effects. Body weights were measured twice weekly.

CNC(=O)c1ncn2cc(-c3c(F)ccc(NS(=O)(=O)c4cc(Cl)cnc4OC)c3F)ncc12 [HC-7366, 6-(3-((5-chloro-2-methoxypyridine)-3-sulfonamido)-2,6-difluorophenyl)-N-methylimidazo[1,5-a]pyrazine-1-carboxamide]
tumor growth inhibition [1]: ~70% | HIF1α, SMAD4 and E2F1 signature ([2]; 0.3-30 mg/kg twice a day): reduction | ATF4 (upstream regulator of differentially expressed genes) ([2]; all doses (0.3-30 mg/kg twice a day)): significantly induced | effect on xenograft tumors ([3]; 2 mg/kg twice daily oral): complete eradication | effect on xenograft tumors ([3]; other doses (0.25, 0.5, 1 mg/kg twice daily)): tumor growth inhibition | myeloid restricted precursor (CD34+CD33+) and mature myeloid cells (CD34−CD33+) [4]: significantly decreased
